Test: Blocker Index (BI), expert graders smelling isovaleric acid + test material swatches against isovaleric acid reference scale
From the text: Material selection is done by assigning two indices to a test sample material from two reference scales in order to rank odor strengths. The two reference scales are the Fragrance Fidelity Index (FFI) scale and the Blocker Index (BI) scale. The FFI ranks the ability of the test sample material to impart a perceivable odor which could cause interference when combined with another fragrance and the BI ranks the ability of the test sample material to reduce malodor perception. The two methods for assigning the indices to a test sample on the FFI and the BI reference scales are given below.
The first step in the method for assigning a BI to a test sample material on the BI reference scale is to create the BI reference swatches. […] Fabric swatches for this test are white knit polycotton (4 inch×4 inch) swatches from EMC ordered as PC 50/50. The supplier is instructed to strip the swatches first, stripping involves washing twice with a fragrance-free detergent and rinsing three times.
The BI scale contains one clean swatch with no malodor applied. […] These solutions are pipetted to the middle of the swatches. […] After drying for 30 minutes in a vented hood, the swatches are wrapped in aluminum foil to prevent odor contamination to the treated swatch. A clean untreated swatch is also included as the lowest anchor point of reference for malodor strength on the BI scale. […]

## COC(=O)OC1CCC=CCCC1 (centres unmarked) [Material 1139]
Conc 10 ppm test material on swatch with 20 μL 0.08% isovaleric acid
  BI: 2.0
Conc 50 ppm test material on swatch with 20 μL 0.08% isovaleric acid
  BI: 2.7

— patent US9714401B2, “Particles for malodor reduction” (The Procter & Gamble Company, priority 2015, dated 2017)
